Here are results for 3 compounds from PMC3953223 (Biochemistry, 2013).

One assay has as its target PfENR. The settings on record: cited from earlier work.
A further assay has as its target T1, TgENR (Toxoplasma gondii, UniProt Q6UCJ9).
T1 sequence (Q6UCJ9 103-417 limits assumed): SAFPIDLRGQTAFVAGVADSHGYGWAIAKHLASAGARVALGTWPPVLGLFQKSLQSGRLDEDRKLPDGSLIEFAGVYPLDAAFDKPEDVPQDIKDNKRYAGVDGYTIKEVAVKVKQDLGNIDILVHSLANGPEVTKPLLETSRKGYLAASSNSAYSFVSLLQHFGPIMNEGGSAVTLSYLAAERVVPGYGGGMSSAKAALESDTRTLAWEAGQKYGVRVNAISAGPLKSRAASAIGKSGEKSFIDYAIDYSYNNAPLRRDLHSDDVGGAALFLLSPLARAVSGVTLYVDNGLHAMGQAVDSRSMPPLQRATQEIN
The assay can be described thus: Thermal shift assay, ligand binding to TgENR alone. To be noted: read-out: Kd of NAD^+ binding to TgENR; TSA, binary complex.

Assay [1] deals with T. gondii tachyzoites (RH-YFP). It counts as cell-based, Toxoplasma gondii. The settings on record: 72 h.
The test system of a further assay is T. gondii parasites. To be noted: read-out: IC50, growth of T. gondii parasites; cited from earlier work.

Values after ≈ are worked out from the molar mass of the structure shown.

`NC(=O)C1=CN([C@@H]2O[C@H](COP(=O)(O)OP(=O)(O)OC[C@H]3O[C@@H](n4cnc5c(N)ncnc54)[C@H](O)[C@@H]3O)[C@@H](O)[C@H]2O)C=CC1` [NADH, nicotinamide adenine dinucleotide]: the Kd – broadly, a measure of binding affinity in units of concentration – at PfENR (read-out: Kd for NADH, PfENR) was 51.6 µM.

Turning to `NC(=O)c1ccc[n+]([C@@H]2O[C@H](COP(=O)([O-])OP(=O)(O)OC[C@H]3O[C@@H](n4cnc5c(N)ncnc54)[C@H](O)[C@@H]3O)[C@@H](O)[C@H]2O)c1` [NAD^+], on TgENR, the Kd stood at 6000 µM.

For the compound `Oc1cc(Cl)ccc1Oc1ccc(Cl)cc1Cl` [Triclosan, triclosan], the “forward rate constant of tight binding complex formation” value in the assay with PfENR (PfENR) is 0.055 s⁻¹. Also, the “T. gondii MIC50” value in assay [1] (RH-YFP tachyzoites in HFF, ± SEM) is 2.8 ± 0.2 µM. Further, the MIC50 (usually an inhibitory concentration at the 50% level, which refers to growth in some studies and to a panel of isolates in others) in assay [1] (Toxoplasma gondii, read-out: T. gondii MIC50) turned out to be 2.8 µM (≈ 0.811 µg/mL). Besides, the IC50 (commonly the concentration that gives 50% inhibition) in the assay with T. gondii parasites was around 0.2 µM.
